Entries after “also recorded” stand apart in the source; their conditions may differ. Read-outs that look alike come from different tables or passages of the source.
Assays:
MG63.3 OS cell line [1] = assay: in vitro 3D BME assay with MG63.3 OS cell line; assay type: cell-based, human; conditions: for activity on 3D BME compared with 2D: MG63.3, 3D BME vs 2D MTT 72 h
From the text: 3D basement membrane extract (BME) assay was developed at the NCI Barkan (D. Barkan et al. 2008; Dalit Barkan and Green 2011; Hen and Barkan 2020). BME is purified from Engelbreth-Holm-Swarm (EHS) tumor, primarily made up of laminin, collagen IV, entactin, and heparin sulfate proteoglycans (Cultrex Reduced Growth Factor Basement Membrane Extract, PathClear n.d.), which allows it to more accurately reflect the 3D extracellular environment in the body.
Initially >150 selected therapeutic agents were tested on BME based on the likelihood for either a positive effect or a […] negative effect (as negative controls). […] These therapeutic agents were also tested in dose response (as broad as 1 pM-100 μM) for 2D cytotoxicity (MTT) and the IC50 was calculated. Where required, the hits from the initial screen were also further characterized at additional doses <100 nM in order to further determine the relative selectivity compared to the 2D IC50.
The influence of drug exposure on the metastatic phenotype was assessed in an in vitro assay of ME and escape from dormancy using a 3D BME assay as previously reported, which was adapted for use with OS cells.
Cultrex® PathClear, Reduced Growth Factor Basement Membrane Extract (BME—Bio-Techne, Minneapolis, MN) was added ([…]) to a 96-well plate and allowed to gel by incubating at 37° C. for ≥30 min. Cells were harvested, washed with DMEM (no glucose, no FBS, Gibco, Grand Island, NY) and centrifuged at 1500 g×5 mins. The media was aspirated and the remaining cell pellet flicked for about 10 s to ensure disaggregation.
Cells were diluted in assay media containing 2% BME, resuspended vigorously and 150 μL of the cell suspension was added on top of the gelled 3D BME layer. […] Cell numbers were determined in control vehicle (cells in media+0.1% DMSO), or treated wells and were measured on the indicated days by addition of 20 μL/well of MTS reagent (Cell Titer 96 Aqueous One, Promega, Madison, WI), followed by incubation at 37° C. for 2 h and absorbance measurements at 490 nm via plate reader (Molecular Devices, San Jose CA).
All conditions were conducted in quadruplicate and each experiment was carried out at least 3 separate times. All comparisons were made between treatment and vehicle control at concordant time points. Statistical analyses and non-linear regressions were derived using GraphPad Prism statistical software.

MG63.3 OS cell line [2] = assay: 2D growth / cytotoxicity by MTT, MG63.3; conditions: for doses exhibiting cytotoxicity on 2D growth: 72 h
Description: The number of viable cells present in 2D culture was determined by MTT as previously reported. Briefly, cells were plated in 96-well plates at 2,000 cells/well and incubated at 37° C. for 24 h. After 24 h, the media was replaced with fresh media containing drugs at the desired concentrations (10 pM-10 μM) and incubated at 37° C. for 72 h. After 72 h, MTT reagent (20 L/well of a 5 mg/mL stock solution in sterile water; Sigma, St. Louis, MO) was added to each well and the plate was incubated at 37° C. for 2 h. DMSO ([…]) was then added to each well to solubilize the formazan crystals.
The resulting absorbance was measured at 490 nm via plate reader (Molecular Devices, San Jose, CA). DMSO (0.1%) was used as vehicle control, while 20 μM rapamycin was used as a positive cell-kill control. The experimental conditions were conducted in triplicate and each experiment was repeated three times. Regression lines and IC50's were calculated using a four-parameter variable slope nonlinear fit in GraphPad Prism.

[3] = Homo sapiens, MG-63.3, MG63.3 on 3D BME, vs vehicle control, replicates=4, read-out: lowest dose leading to appreciable inhibition of 3D growth

SMILES	doses exhibiting cytotoxicity on 2D growth (MG63.3 OS cell line [2]; human) [nM]	minimal effective concentration (MG63.3 OS cell line [1]; [3]) [µM]	activity on 3D BME compared with 2D (MG63.3 OS cell line [1])	other results
O=C(CC1NCCCC1O)Cn1cnc2cc(Br)c(Cl)cc2c1=O (stereo not shown) [halofuginone]	≥ 12.5			lowest dose leading to >25% inhibition of 3D growth (MG63.3 OS cell line [1]; MG63.3 on 3D BME, vs vehicle control, replicates=4): 3 nM
CO[C@@H](C(=O)N1Cc2n[nH]c(NC(=O)c3ccc(N4CCN(C)CC4)cc3)c2C1)c1ccccc1 [danusertib]	> 100	0.1	much stronger activity on 3D BME at significantly lower doses	
C=CCNc1c(O)cc2c(O)c1C[C@@H](C)C[C@H](OC)[C@H](O)[C@@H](C)/C=C(\C)[C@H](OC(N)=O)[C@@H](OC)/C=C\C=C(/C)C(=O)N2 [retaspimycin]		0.2		doses exhibiting cytotoxicity on 2D growth (MG63.3 OS cell line [2]; MG63.3, MTT, replicates=3): > 400 nM
CC1(C)CCC(c2ccc(Cl)cc2)=C(CN2CCN(c3ccc(C(=O)NS(=O)(=O)c4ccc(N[C@H](CCN5CCOCC5)CSc5ccccc5)c(S(=O)(=O)C(F)(F)F)c4)cc3)CC2)C1 [navitoclax]	≥ 1000	0.5	much stronger activity on 3D BME at similar doses; also recorded: more active in 3D than in 2D	growth inhibition in the 3D BME assay (MG63.3 OS cell line [1]; navitoclax 500-2000 nM, MG63.3): 50-60%; inhibition in 2D (MG63.3 OS cell line [2]; navitoclax 500-2000 nM, MG63.3): 0-25%
CC(C)n1nc(-c2ccc3oc(N)nc3c2)c2c(N)ncnc21 [sapanisertib]	> 8	0.001		
CNC(=O)c1cccc(-c2ccc3c(N4CCOC[C@@H]4C)nc(N4CCOC[C@@H]4C)nc3n2)c1 [vistusertib]	> 0.64	0.1	slightly stronger activity on 3D BME at 100 nM	
O=C(NOC[C@H](O)CO)c1ccc(F)c(F)c1Nc1ccc(I)cc1F [PD0325901]	≥ 100		much stronger activity on 3D BME at similar doses; also recorded: more active in 3D than in 2D	minimal effective concentration (MG63.3 OS cell line [1]; Homo sapiens, MG-63.3, read-out: lowest dose leading to appreciable inhibition of 3D growth): 0.001 µM; growth inhibition in the 3D BME assay (MG63.3 OS cell line [1]; PD0325901 1-128 nM, MG63.3): 50-75%; inhibition in 2D at this dose (MG63.3 OS cell line [2]; PD0325901 1-128 nM, MG63.3): no statistically significant inhibition
NS(=O)(=O)OC[C@@H]1C[C@@H](n2ccc3c(N[C@H]4CCc5ccccc54)ncnc32)C[C@@H]1O [pevonedistat]	> 10		much stronger activity on 3D BME at significantly lower doses; also recorded: more active in 3D than in 2D	inhibition at 0.025 µM (MG63.3 OS cell line [1]; Homo sapiens, MG-63.3, pevonedistat 25 nM, MG63.3): 47%; inhibition at 0.025 µM (MG63.3 OS cell line [2]; Homo sapiens, MG-63.3, read-out: inhibition in 2D): 20%
Cn1cc(CNCC2CCN(c3ncc(C(=O)NO)cn3)CC2)c2ccccc21 [quisinostat]	≥ 80	0.01	more active in 3D than in 2D	3D activity and selectivity for ME in a screen of 10 HDAC inhibitors (MG63.3 OS cell line [1]; MG63.3, selectivity = ratio of 3D to 2D % inhibition at the same dose, Class I, Class II, pan-HDAC): highest 3D activity and selectivity for ME; 3D growth inhibition and selectivity for ME at selected dose (MG63.3 OS cell line [1]; givinostat 400 nM, quisinostat 10 nM, MG63.3 3D BME): significant 3D growth inhibition and selectivity for ME
Cn1ncnc1[C@H]1c2n[nH]c(=O)c3cc(F)cc(c23)N[C@@H]1c1ccc(F)cc1 [talazoparib]	> 100	0.0125	much stronger activity on 3D BME at significantly lower doses	
